Measured values reported in PubChem BioAssay (NCI).
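Grown in 96-well plates, cells were treated for 48 hours with each compound at five concentrations. Insufficient inhibition: endpoint recorded as highest concentration tested. GI50 is the concentration that inhibits growth by half. Definition used: TGI = concentration required for complete inhibition of growth.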

Legend:
Experiment in all cases: NCI tumour cell line growth inhibition, 48 h
DU-145 prostate = test system: DU-145 prostate
M14 melanoma = test system: M14 melanoma
SK-MEL-28 melanoma = test system: SK-MEL-28 melanoma
SF-295 CNS = test system: SF-295 CNS
A498 renal = test system: A498 renal
NCI-H23 lung = test system: NCI-H23 lung
SNB-75 CNS = test system: SNB-75 CNS
ACHN renal = test system: ACHN renal
SN12C renal = test system: SN12C renal
HCT-15 colon = test system: HCT-15 colon
T-47D breast = test system: T-47D breast
SK-MEL-2 melanoma = test system: SK-MEL-2 melanoma
SF-268 CNS = test system: SF-268 CNS
HOP-62 NSCLC = test system: HOP-62 NSCLC
SK-MEL-5 melanoma = test system: SK-MEL-5 melanoma
SK-OV-3 ovarian = test system: SK-OV-3 ovarian
MOLT-4 leukemia = test system: MOLT-4 leukemia
NCI/ADR-RES ovarian = test system: NCI/ADR-RES ovarian
786-0 renal = test system: 786-0 renal
IGROV1 ovarian = test system: IGROV1 ovarian
RXF 393 renal = test system: RXF 393 renal
HOP-92 NSCLC = test system: HOP-92 NSCLC
SR leukemia = test system: SR leukemia
CAKI-1 renal = test system: CAKI-1 renal
NCI-H460 lung = test system: NCI-H460 lung
OVCAR-3 ovarian = test system: OVCAR-3 ovarian
UACC-257 melanoma = test system: UACC-257 melanoma
HS 578T breast = test system: HS 578T breast

Compound c1ccc(CC(Cc2ccccc2)C2=NCCCN2)cc1 has a GI50 (DU-145 prostate) of 3.36 µM, a TGI (DU-145 prostate) of 9.75 µM and a GI50 (M14 melanoma) of 3.17 µM. For the same compound, the TGI (M14 melanoma) was greater than 100 µM, the GI50 (SK-MEL-28 melanoma) was 6.4 µM and the TGI (SK-MEL-28 melanoma) was greater than 100 µM. It also gave a GI50 (SF-295 CNS) of 3.32 µM, a TGI (SF-295 CNS) greater than 100 µM and a GI50 (A498 renal) of 1.84 µM. The TGI (A498 renal) was 33.2 µM, the GI50 (NCI-H23 lung) was 3.48 µM and the TGI (NCI-H23 lung) was greater than 100 µM. It also gave a GI50 (SNB-75 CNS) of 7.8 µM, a TGI (SNB-75 CNS) greater than 100 µM and a GI50 (ACHN renal) of 7.95 µM. For the same compound, the TGI (ACHN renal) was greater than 100 µM, the GI50 (SN12C renal) was 4.18 µM and the TGI (SN12C renal) was greater than 100 µM. It also gave a GI50 (HCT-15 colon) of 3.44 µM, a TGI (HCT-15 colon) greater than 100 µM and a GI50 (T-47D breast) of 30.8 µM. It also gave a TGI (T-47D breast) greater than 100 µM, a GI50 (SK-MEL-2 melanoma) of 2.66 µM and a TGI (SK-MEL-2 melanoma) of 7.91 µM. The GI50 (SF-268 CNS) was 5.25 µM, the TGI (SF-268 CNS) was greater than 100 µM and the GI50 (HOP-62 NSCLC) was 4.83 µM. For the same compound, the TGI (HOP-62 NSCLC) was greater than 100 µM, the GI50 (SK-MEL-5 melanoma) was 2.73 µM and the TGI (SK-MEL-5 melanoma) was 9.52 µM. It also gave a GI50 (SK-OV-3 ovarian) of 2.1 µM, a TGI (SK-OV-3 ovarian) of 6.44 µM and a GI50 (MOLT-4 leukemia) of 3.56 µM. The TGI (MOLT-4 leukemia) was 23.2 µM, the GI50 (NCI/ADR-RES ovarian) was 2.99 µM and the TGI (NCI/ADR-RES ovarian) was greater than 100 µM. The GI50 (786-0 renal) was 4.26 µM, the TGI (786-0 renal) was greater than 100 µM and the GI50 (IGROV1 ovarian) was 4.2 µM. The TGI (IGROV1 ovarian) was greater than 100 µM, the GI50 (RXF 393 renal) was 2.82 µM and the TGI (RXF 393 renal) was greater than 100 µM. For the same compound, the GI50 (HOP-92 NSCLC) was 4.52 µM, the TGI (HOP-92 NSCLC) was 64.6 µM and the GI50 (SR leukemia) was 3.78 µM. It also gave a TGI (SR leukemia) greater than 100 µM, a GI50 (CAKI-1 renal) of 6.39 µM and a TGI (CAKI-1 renal) greater than 100 µM. It also gave a GI50 (NCI-H460 lung) of 3.36 µM, a TGI (NCI-H460 lung) of 21.9 µM and a GI50 (OVCAR-3 ovarian) of 2.42 µM. The TGI (OVCAR-3 ovarian) was 4.97 µM, the GI50 (UACC-257 melanoma) was 17 µM and the TGI (UACC-257 melanoma) was greater than 100 µM. For the same compound, the GI50 (HS 578T breast) was 4.07 µM.
